Where two headings read alike, the source gives them in different places.
Experiments:
[1] = fragranced soaps, six months of storage; cited from earlier work
[2] = physchem; conditions: toluene
Description: (§1) The disappearance of both compounds is measured by gas chromatography using a six foot long, one-eighth inch diameter column having 15 percent by weight polyethylene glycol with an average molecular weight of 20,000 (Carbowax-20 M, Trademark) on particles of 80 by 100 mesh diatomaceous earth (Chromasorb W, Trademark) and using helium feed at 28 cc. per minute while heating from 100° to 210° C. at 8° per minute. Ten percent solutions of each compound in toluene are stirred at equal rates in the presence of air at ambient temperatures.

[3] = 0 min
Description: as §1

[4] = cited from earlier work
[5] = Water solubility; type: physicochemical; conditions: in words

For `CC=Cc1ccc(OC(C)OCC)c(OC)c1` (stereo not drawn) [1'-ethoxyethyl ether of isoeugenol], the stability to discoloration [1] is listed as “stable to discoloration”.
Work on `CCOC(C)OC1=C(C)OC(C)C1=O` (stereo not drawn) [2,5-Dimethyl-4-[(1'-ethoxy)ethoxy]-3(2H)-furanone] yielded a remaining at 17 h [2] of 95%, a remaining at 41 h [2] of 93% and a remaining at 116 h [2] of 44%. The remaining at 137 h [2] was 38% and the “% Remaining” value [3] was 100%.
`CC1=C(O)C(=O)C(C)O1` (stereo not drawn) [Pineapple Ketone, 2,5-dimethyl-4-hydroxy-3(2H)-furanone] gave a remaining at 15 h [2] of 24%, a remaining at 41 h [2] of 18% and a remaining at 115 h [2] of 6%. For the same molecule, the remaining at 138 h [2] was 4%, the half-life ([4]; pH 4) was 120 days and the half-life ([4]; pH 7) was 12 days. The “% Remaining” value [3] was 100% and the water solubility [5] was “water soluble”.
For `CC=Cc1ccc(O)c(OC)c1` [isoeugenol], the stability to discoloration [1] is given as “causes discoloration”.

Source: patent US4590284A, “Pineapple ketone 1'-alkoxyalkyl derivatives” (Hercules Incorporated, priority 1985, dated 1986)
